# Experiments:
# [1] = Clearance in CD-1 mouse at 1 mg/kg, iv measured up to 24 hrs by LC-MS/MS analysis; format: ADME, organism-based; details: in vivo
# [2] = Volume of distribution at steady state in CD-1 mouse at 1 mg/kg, iv measured up to 24 hrs by LC-MS/MS analysis; format: ADME, organism-based; details: in vivo, read-out: Vdss
# [3] = Terminal half life in CD-1 mouse at 1 mg/kg, iv measured up to 24 hrs by LC-MS/MS analysis; format: ADME, organism-based; details: in vivo, read-out: beta t1/2 (converted)
# [4] = AUC (0 to last) in CD-1 mouse at 1 mg/kg, iv measured up to 24 hrs by LC-MS/MS analysis; format: ADME, organism-based; details: in vivo
# [5] = Clearance in Sprague-Dawley rat at 1 mg/kg, iv measured up to 8 hrs by LC-MS/MS analysis; format: ADME, organism-based; details: in vivo
# [6] = Volume of distribution at steady state in Sprague-Dawley rat at 1 mg/kg, iv measured up to 8 hrs by LC-MS/MS analysis; format: ADME, organism-based; details: in vivo, read-out: Vdss
# [7] = Terminal half life in Sprague-Dawley rat at 1 mg/kg, iv measured up to 8 hrs by LC-MS/MS analysis; format: ADME, organism-based; details: in vivo, read-out: beta t1/2 (converted)
# [8] = AUC (0 to last) in Sprague-Dawley rat at 1 mg/kg, iv measured up to 8 hrs by LC-MS/MS analysis; format: ADME, organism-based; details: in vivo
# [9] = Clearance in Beagle dog at 1 mg/kg, iv measured up to 8 hrs by LC-MS/MS analysis; format: ADME, organism-based, Canis lupus familiaris; details: in vivo
# [10] = Volume of distribution at steady state in Beagle dog at 1 mg/kg, iv measured up to 8 hrs by LC-MS/MS analysis; format: ADME, organism-based, Canis lupus familiaris; details: in vivo, read-out: Vdss
# [11] = Terminal half life in Beagle dog at 1 mg/kg, iv measured up to 8 hrs by LC-MS/MS analysis; format: ADME, organism-based, Canis lupus familiaris; details: in vivo, read-out: beta t1/2 (converted)
# [12] = AUC (0 to last) in Beagle dog at 1 mg/kg, iv measured up to 8 hrs by LC-MS/MS analysis; format: ADME, organism-based, Canis lupus familiaris; details: in vivo
# [13] = Clearance in cynomolgus monkey at 1 mg/kg, iv measured up to 8 hrs by LC-MS/MS analysis; format: ADME, organism-based, Macaca fascicularis; details: in vivo
# [14] = Volume of distribution at steady state in cynomolgus monkey at 1 mg/kg, iv measured up to 8 hrs by LC-MS/MS analysis; format: ADME, organism-based, Macaca fascicularis; details: in vivo, read-out: Vdss
# [15] = Terminal half life in cynomolgus monkey at 1 mg/kg, iv measured up to 8 hrs by LC-MS/MS analysis; format: ADME, organism-based, Macaca fascicularis; details: in vivo, read-out: beta t1/2 (converted)
# [16] = AUC (0 to last) in cynomolgus monkey at 1 mg/kg, iv measured up to 8 hrs by LC-MS/MS analysis; format: ADME, organism-based, Macaca fascicularis; details: in vivo
# [17] = target: T1, Tyrosine-protein kinase receptor UFO (Homo sapiens, UniProt P30530); assay: Inhibition of human AXL measured after 150 mins by ATP-competitive HTRF based biochemical assay
# T1 sequence (P30530 whole entry): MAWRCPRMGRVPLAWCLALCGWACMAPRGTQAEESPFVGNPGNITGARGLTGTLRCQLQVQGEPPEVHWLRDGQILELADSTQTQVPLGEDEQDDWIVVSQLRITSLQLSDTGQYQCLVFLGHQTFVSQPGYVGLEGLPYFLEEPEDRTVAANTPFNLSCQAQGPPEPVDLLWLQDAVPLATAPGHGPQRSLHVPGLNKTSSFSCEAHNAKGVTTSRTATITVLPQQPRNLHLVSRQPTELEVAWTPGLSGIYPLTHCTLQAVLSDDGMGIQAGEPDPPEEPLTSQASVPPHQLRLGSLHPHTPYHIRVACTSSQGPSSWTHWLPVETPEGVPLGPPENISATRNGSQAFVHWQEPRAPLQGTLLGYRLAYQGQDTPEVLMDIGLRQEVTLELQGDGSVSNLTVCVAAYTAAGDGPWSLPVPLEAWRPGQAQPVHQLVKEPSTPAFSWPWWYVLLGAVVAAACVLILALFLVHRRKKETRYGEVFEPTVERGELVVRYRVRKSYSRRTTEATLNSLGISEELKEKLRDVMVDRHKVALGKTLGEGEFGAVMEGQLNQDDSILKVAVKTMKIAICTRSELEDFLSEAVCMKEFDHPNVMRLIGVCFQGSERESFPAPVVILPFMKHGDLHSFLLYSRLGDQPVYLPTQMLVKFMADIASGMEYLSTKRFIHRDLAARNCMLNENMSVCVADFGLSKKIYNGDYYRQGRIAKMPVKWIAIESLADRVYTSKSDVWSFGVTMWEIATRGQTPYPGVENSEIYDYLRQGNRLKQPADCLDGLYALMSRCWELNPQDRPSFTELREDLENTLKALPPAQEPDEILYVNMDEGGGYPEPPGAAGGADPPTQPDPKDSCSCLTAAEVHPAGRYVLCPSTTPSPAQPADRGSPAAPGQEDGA
# [18] = target: T1, Tyrosine-protein kinase receptor UFO; assay: Binding affinity to AXL (unknown origin) expressed in HEK293 cells transfected with Nano-Luc fusion vector assessed as dissociation constant by measuring decrease in BRET signal preincubated for 1 hr followed by K-5 NanoBRET tracer addition incubated for 2 hrs; format: cell-based
# [19] = Metabolic stability in rat hepatocytes assessed as intrinsic clearance measured per 10^6 cells; format: ADME, cell-based, Hepatocyte; details: read-out: CLH
# [20] = AUCinf in Sprague-Dawley rat at 2 mg/kg, po measured up to 8 hrs by LC-MS/MS analysis; format: ADME, organism-based; details: in vivo
# [21] = Efflux ratio in human Caco-2 cells; format: ADME, cell-based
# [22] = Metabolic stability in human hepatocytes assessed as intrinsic clearance measured per 10^6 cells; format: ADME, cell-based, Hepatocyte; details: read-out: CLH
# [23] = AUCinfinity in CD-1 mouse at 1 mg/kg, iv measured up to 24 hrs by LC-MS/MS analysis; format: ADME, organism-based; details: in vivo
# [24] = AUCinfinity in Sprague-Dawley rat at 1 mg/kg, iv measured up to 8 hrs by LC-MS/MS analysis; format: ADME, organism-based; details: in vivo
# [25] = AUCinfinity in Beagle dog at 1 mg/kg, iv measured up to 8 hrs by LC-MS/MS analysis; format: ADME, organism-based, Canis lupus familiaris; details: in vivo
# [26] = AUCinfinity in cynomolgus monkey at 1 mg/kg, iv measured up to 8 hrs by LC-MS/MS analysis; format: ADME, organism-based, Macaca fascicularis; details: in vivo
compound,measurement,setting,value
CN(C)C(=O)c1ccc(-c2n[nH]c3ncc(-c4ccc5c(c4)CC[C@@H](N4C6COCC4C6)CC5)cc23)cc1,clearance,[1],38.3 mL/min/kg
same,Vd,[2],3.2 L/kg
same,half-life,[3],8.1 h
same,AUC(0-t) at 24 h,[4],13 ng·h/mL
same,clearance,[5],2.67 mL/min/kg
same,Vd,[6],0.34 L/kg
same,half-life,[7],2.2 h
same,AUC(0-t) at 8 h,[8],6100 ng·h/mL
same,clearance,[9],33.3 mL/min/kg
same,Vd,[10],8.1 L/kg
same,half-life,[11],3.8 h
same,AUC(0-t) at 8 h,[12],540 ng·h/mL
same,clearance,[13],76.7 mL/min/kg
same,Vd,[14],13 L/kg
same,half-life,[15],2.3 h
same,AUC(0-t) at 8 h,[16],210 ng·h/mL
same,IC50,[17],5.3 nM
same,Kd,[18],6.8 nM
same,hepatocyte CLint,[19],20 µL/min/1e6 cells
same,AUC(0-inf),[20],4300 ng·h/mL
same,efflux ratio,[21],11
same,hepatocyte CLint,[22],4.6 µL/min/1e6 cells
same,AUC(0-inf),[23],430 ng·h/mL
same,AUC(0-inf),[24],6400 ng·h/mL
same,AUC(0-inf),[25],560 ng·h/mL
same,AUC(0-inf),[26],230 ng·h/mL

# From ChEMBL document CHEMBL6134930, “Discovery of AB801, a Potent and Selective Inhibitor of AXL Receptor Tyrosine Kinase for Use in Cancer Therapy” (J Med Chem, 2025)
